Experimental data: PMC5955586, “Transport of enniatin B and enniatin B1 across the blood-brain barrier and hints for neurotoxic effects in cerebral cells” (PLoS ONE, 2018)
Read-outs that look alike come from different tables or passages of the source.

Legend:
CCF-STTG1 cells [1] = assay: CCK-8 viability assay in CCF-STTG1; assay type: cell-based, human; settings: for concentration with highly significant cytotoxic effects / IC50: CCF-STTG1, 48 h; for IC50: Homo sapiens, CCK-8, read-out: IC50 (cellular viability)
Protocol: (§1) To test the viability and to define the working range for later transport studies ENN B/ENN B1 stock solutions in ACN were diluted to the respective concentrations with serum free culture medium (1% ACN). An astrocytoma cell line, CCF-STTG1 (ATCC, Manassas, USA), and HBMEC cell line (human brain microvascular endothelial cells, kindly provided by Prof. Dr. Karch, Institute of Hygiene, University of Muenster (WWU Muenster)) were cultivated in RPMI 1640 medium supplemented with 100 U/mL penicillin, 100 μg/mL streptomycin, 2 mM L-glutamine and 10% (v/v) fetal calf serum (FCS) (medium for HBMEC additionally supplemented with 1 mM Na-pyruvate) using standardized culture conditions (37°C, 5% CO2, saturated humidified atmosphere). Culture medium was changed every 2–3 d, and the cells were subcultivated after trypsination when they reached a microscopic confluence of approximately 80%. For the evaluation of cytotoxic effects of ENN B and B1 in CCF-STTG1 and HBMEC, Cell Counting Kit-8 (CCK-8, Dojindo Laboratories, Tokyo Japan) was applied. The assay was performed according to the manufacturer’s instructions with slight modifications.
Briefly, the cells were seeded in 96-well tissue culture plates in a density of 1 × 10^4 cells/well (CCF-STTG1) and 4 × 10^3 cells/well (HBMEC), respectively. The cells were allowed to grow for 24 h, then the culture medium was replaced by serum free medium (100 μL/well), and the cells were cultivated for another 24 h (37°C, 5% CO2, saturated humidified atmosphere) before treatment. The cells were treated with ENN B and ENN B1 in a concentration range from 0.1 μM to 10 μM and were incubated for 48 h. After toxin exposure, the toxin solution was exchanged with a dye solution WST-8 (CCK-8 solution, water soluble tetrazolium salt-8, 2-(2-methoxy-4-nitrophenyl)-3-)4-nitrophenyl)-5-(2,4-disulfophenyl)-2H-tetrazolium monosodium salt), 1:10 diluted with fresh serum free medium, which was added to the cells followed by incubation for 60 min at 37°C. WST-8 dye is reduced to a water-soluble formazan by cellular dehydrogenases of viable cells, which increases the absorbance at λ = 457 nm and was measured with an Infinite M200 PRO microplate reader with Tecan i-control software version 1.7.1.12 (Tecan, Crailsheim, Germany). The amount of formazan generated by the activity of dehydrogenases in cells is directly proportional to the number of viable cells per well. The results are normalized to a solvent treated negative control (1% ACN).

HBMEC = assay: CCK-8 viability assay in HBMEC; assay type: cell-based, human; settings: 0.1 μM to 10 μM, 48 h
Protocol: as §1, with “For the evaluation of cytotoxic effects of ENN B and B1 in CCF-STTG1 and HBMEC, Cell Counting Kit-8 (CCK-8, Dojindo Laboratories, Tokyo Japan) was applied. The assay was performed according to the manufacturer’s instructions with slight modifications.” left out
Briefly, the cells were seeded in 96-well tissue culture plates in a density of 1 × 10^4 cells/well (CCF-STTG1) and 4 × 10^3 cells/well (HBMEC), respectively. […] WST-8 dye is reduced to a water-soluble formazan by cellular dehydrogenases of viable cells, which increases the absorbance at λ = 457 nm and was measured with an Infinite M200 PRO microplate reader with Tecan i-control software version 1.7.1.12 (Tecan, Crailsheim, Germany). […]

caspase-3 = assay: Caspase-3 activity in CCF-STTG1 lysates; assay type: cell-based, human; settings: 48 h
Protocol: For studying caspase-3 activity CCF-STTG1 cells were seeded in 12 well tissue culture plates in a cell density of 2.25 × 10^5 cells/well. The cells were grown for 24 h until a confluence of at least 70% was reached, then the medium was changed to serum free medium (RPMI 1640 medium supplemented with 100 U/mL penicillin, 100 μg/mL streptomycin and 2 mM L-glutamine). Concentrations from 0.1 μM to 2.5 μM were chosen to prevent strong cytotoxic effects, which might interfere with the endpoint of interest. 24 h after adaption to serum free conditions, cells were incubated with ENN B and ENN B1. Caspase-3 activity was determined in lysates. […] 33 μL reaction solution were added to 30 μL of the supernatant and incubated for 1 and 2 h at 37°C, 5% CO2 and saturated humidified atmosphere and then measured at λex = 405 nm and λem = 520 nm (Infinite M200 PRO microplate reader). […] The results were calculated as μmol AFC/μg protein and normalized to the solvent treated control (ACN 0.25%).
For quantitation of the total protein content a bicinchoninic acid (BCA) assay kit (Sigma-Aldrich GmbH, Seelze, Germany) was applied. […] After that the absorbance was measured at 560 nm with a Infinite M200 PRO microplate reader (Tecan, Crailsheim, Germany).

CCF-STTG1 cells [2] = assay: LDH leakage in CCF-STTG1; assay type: cell-based, human; settings: CCF-STTG1, 0.1 to 2.5 μM, 48 h
Protocol: For measurement of lactate dehydrogenase (LDH) leakage, cell lysates and treatment solutions (serum free medium with respective ENN B/B1 content) after incubation for 48 h were used. The cell lysates were prepared as described for caspase-3 activation assay. To determine the LDH activity, 15 μL of the lysate and 40 μL of the incubation medium were each added to 200 μL substrate buffer (100 mM HEPES, 10 mM sodium pyruvate and 0.21 mM NADH, adjusted to pH 7.0), incubated over the course of 30 min at 37°C and absorption was measured every 2 min at 355 nm in a Infinite M200 PRO microplate reader (Tecan, Crailsheim, Germany).

Caco-2 = settings: cited from earlier work; for absorption: Caco-2, 4 h exposure; for duodenal bioavailability in vitro: Caco-2 model, 48 h
HepG2 = test system: HepG2; parameters: method as in PMID 21640785; settings: cited from earlier work
Caco-2 cells = test system: Caco-2 cells; parameters: method as in PMID 21640785; settings: cited from earlier work
HepG2 cells = test system: HepG2 cells; parameters: method as in PMID 16730043; settings: HepG2, 24 h, Alamar Blue; cited from earlier work
[3] = parameters: method as in PMID 27349679; settings: mice; cited from earlier work

SMILES	effect on viability (CCF-STTG1 cells [1]; CCF-STTG1, 0.1 μM and 1 μM, 48 h)	concentration with highly significant cytotoxic effects (CCF-STTG1 cells [1]) [µM]	IC50 (CCF-STTG1 cells [1]) [µM]	effect on viability compared to solvent control (HBMEC)	maximum increase of caspase-3 activity (relative to solvent control) (caspase-3; CCF-STTG1, 1 μM) [%]	LDH release (CCF-STTG1 cells [2])	absorption (Caco-2) [%]	duodenal bioavailability in vitro (Caco-2) [%]	IC50 (HepG2; read-out: IC50) [µM]	IC50 (Caco-2 cells; read-out: IC50) [µM]	IC50 (HepG2 cells) [µM]	brain tissue distribution in the parenchyma [3] [%]	remaining in the capillaries [3] [%]	increase of caspase-3 activity compared to solvent control (caspase-3; CCF-STTG1, 2.5 μM) [fold]	IC50 (HepG2)	IC50 (Caco-2 cells)
CC[C@H](C)[C@H]1C(=O)O[C@H](C(C)C)C(=O)N(C)[C@@H](C(C)C)C(=O)O[C@H](C(C)C)C(=O)N(C)[C@@H](C(C)C)C(=O)O[C@H](C(C)C)C(=O)N1C [ENN B1, enniatin B1]	weak but significant effects	≥ 2.5	4.4	no effect on viability	160	no significant increase of LDH release	> 65	> 50	8.5	11.5	36	95	5	–	–	–
CC(C)[C@H]1C(=O)O[C@H](C(C)C)C(=O)N(C)[C@@H](C(C)C)C(=O)O[C@H](C(C)C)C(=O)N(C)[C@@H](C(C)C)C(=O)O[C@H](C(C)C)C(=O)N1C [ENN B, enniatin B]	–	≥ 5	8.9	no effect on viability	–	no significant increase of LDH release	> 65	> 50	–	–	436	95	5	2.7	no IC50 could be calculated	no IC50 could be calculated
